The nature of series [1]: Pharmacokinetic evaluation in C57 mice. The format is in vivo. The following applies: for Vd / AUC(0-t) / half-life / Cmax / bioavailability / CL/F: both sexes, mouse, plasma; for Vd: read-out: Apparent distribution volume Vss; for AUC(0-t): read-out: Area under curve AUC0-t; for half-life: read-out: Half-life T½ (converted); for Cmax: read-out: Plasma concentration Cmax; for bioavailability: oral, i.g. 2.0 mg/kg vs i.v. 1.0 mg/kg, read-out: Bioavailability F (%); for CL/F: read-out: Clearance rate CL/F; for Clearance rate CL/F: i.v. The procedure: C57 mice were used as test animals. After intragastric (i.g.)/intravenous (i.v.) administration of the compounds of the present disclosure to C57 mice, the plasma concentrations at different time points were measured by the LC/MS/MS method. The pharmacokinetic behavior of the compounds of the present disclosure in C57 mice was studied and their pharmacokinetic profiles were evaluated.
Compound 2 and compound 3.
36 C57 mice, of which half were male and half female, were evenly divided into 4 groups of 9, 3 mice per time point per group. The mice were provided by Vital River Laboratory Animal Technology Co., Ltd. The mice were intragastrically and intravenously administered the compounds.
(§1) 2.3. Compound Solution Preparation
A certain amount of test compound was weighed out and dissolved in 5% DMSO+5% tween 80+90% normal saline to prepare a 0.1 mg/mL colorless clear solution (for the intragastric administration groups) and a 0.1 mg/mL colorless clear solution (for the intravenous administration groups).
Intragastric administration groups: The dose was 2.0 mg/kg, and the volume was 0.2 mL/10 g.
Intravenous administration groups: The dose was 1.0 mg/kg, and the volume was 0.1 mL/10 g.
Intragastric administration groups: 0.1 mL blood samples were collected before the administration and 0.25 h, 0.5 h, 1.0 h, 2.0 h, 4.0 h, 6.0 h, 8.0 h, 11.0 h and 24.0 h post-dose. The blood samples were placed into EDTA-K2 anticoagulation tubes and centrifuged at 10,000 rpm for 1 min (4° C.), and plasma was separated within 1 h and stored at −80° C. before analysis. The process from the blood collection to the centrifugation was performed in an ice bath.
Intravenous administration groups: Blood samples were collected before administration and 5 min, 0.25 h, 0.5 h, 1.0 h, 2.0 h, 4.0 h, 8.0 h, 11.0 h and 24 h post-dose and were treated in the same way as those collected from the intragastric administration groups.
Measurement of plasma concentrations in C57 mice after compounds were administered in different concentrations: 25 μL samples of the C57 mouse plasma collected at various time points post-dose were taken, and to each of the samples was added 50 μL of diclofenac (an internal standard for compound 2, 100 ng/mL) or 25 μL of tolbutamide (an internal standard for compound 3, […], purchased from LGC Ltd., UK). Protein was precipitated with 200 μL of acetonitrile, and after 5 min of vortexing, the mixtures were centrifuged at 3700 rpm for 10 min. 120 μL of supernatant was taken and vortexed with 30 μL of water for 5 min, and a 5 μL sample was taken for LC/MS/MS analysis. 4. Pharmacokinetic parameters

The nature of series [2]: Pharmacokinetic evaluation in SD rats. The format is in vivo. The following applies: both sexes, rat, plasma, po, i.g., 2.0 mg/kg; for Vd/F: read-out: Apparent distribution volume Vz/F; for AUC(0-t): read-out: Area under curve AUC0-t; for CL/F: read-out: Clearance rate CL/F; for half-life: read-out: Half-life T½ (converted); for Cmax: read-out: Plasma concentration Cmax. The procedure:
Test Example 5: Pharmacokinetic Evaluation
SD rats were used as test animals. After intragastric (i.g.) administration of the compounds of the present disclosure to SD rats, the plasma concentrations at different time points were measured by the LC/MS/MS method. The pharmacokinetic behavior of the compounds of the present disclosure in SD rats was studied, and their pharmacokinetic profiles were evaluated.
Compound 2, compound 7, compound 21, and compound 23.
16 SD rats, of which half were male and half female, were evenly divided into 4 groups. The rats were provided by Vital River Laboratory Animal Technology Co., Ltd. The rats were fasted overnight and intragastrically administered the compounds.
as §1
A certain amount of test compound was weighed out and dissolved in 5% DMSO+5% tween 80+90% normal saline to prepare a 0.2 mg/mL colorless clear solution.
The dose administered was 2.0 mg/kg, and the volume was 10.0 mL/kg.
0.1 mL blood samples were collected from the orbit before the administration and 0.25 h, 0.5 h, 1.0 h, 2.0 h, 4.0 h, 6.0 h, 8.0 h, 11.0 h and 24.0 h post-dose. The blood samples were placed into EDTA-K2 anticoagulation tubes and centrifuged at 10,000 rpm for 1 min (4° C.), and plasma was separated within 1 h and stored at −20° C. before analysis. The process from the blood collection to the centrifugation was performed in an ice bath. Access to food was given 2 h post-dose.
Measurement of plasma concentrations in SD rats after compounds were administered in different concentrations: 25 μL samples of the SD rat plasma collected at various time points post-dose were taken, and to each of the samples was added 25 μL of camptothecin (an internal standard for compound 2, 100 ng/mL) or 50 μL of tolbutamide (an internal standard for compound 7, 100 ng/mL) or 50 μL of verapamil (an internal standard for compounds 21 and 23, 100 ng/mL). Protein was precipitated with 200 μL of acetonitrile, and after 5 min of vortexing, the mixtures were centrifuged at 3700 rpm for 10 min. 120 µL of supernatant was taken and vortexed with 30 μL of water for 5 min, and a 5 μL sample was taken for LC/MS/MS analysis.

What is called half-life is the time in which the quantity being followed falls by half. Turning to `COc1cccc(OC)c1S(=O)(=O)Nc1noc2cc(Cn3cccn3)c3c(c12)OCCC3` [Compound 2, N-(5-((1H-pyrazol-1-yl)methyl)-3,4-dihydro-2H-chromeno[8,7-d]isoxazol-9-yl)-2,6-dimethoxybenzenesulfonamide], in series [1] (iv, 1.0 mg/kg), the Vd is 0.093 L/kg, the AUC(0-t) amounted to 188 µg·h/mL, the half-life is 18.4 h and the Cmax was 17600 ng/mL. In series [1], the bioavailability was 108%. In series [1] (po, i.g., 2.0 mg/kg), the AUC(0-t) stood at 405 µg·h/mL, the CL/F turned out to be 0.033 mL/min/kg, the half-life is 29.7 h and the Cmax was determined as 40100 ng/mL. Besides, the “Clearance rate CL/F” value in series [1] (1.0 mg/kg) was 0.0504 mL/min/kg. In series [2], the Vd/F worked out at 0.202 L/kg, the AUC(0-t) was found to be 43.3 µg·h/mL, the CL/F was 0.8 mL/min/kg and the half-life is 2.96 h. In addition, the Cmax in series [2] amounted to 8210 ng/mL.

For the molecule `CCOc1cc(C)ccc1S(=O)(=O)Nc1noc2cc(Cn3cccn3)c3c(c12)OCCC3` [Compound 7, N-(5-((1H-pyrazol-1-yl)methyl)-3,4-dihydro-2H-chromeno[8,7-d]isoxazol-9-yl)-2-ethoxy-4-methylbenzenesulfonamide], in series [2], the Vd/F turned out to be 0.25 L/kg, the AUC(0-t) came out at 81.3 µg·h/mL, the CL/F is 0.614 mL/min/kg and the half-life is 6.71 h. In addition, in series [2], the Cmax was 9200 ng/mL.

Consider `COc1ccccc1S(=O)(=O)Nc1noc2cc(Cn3cccn3)c3c(c12)OCCC3` [Compound 3, N-(5-((1H-pyrazol-1-yl)methyl)-3,4-dihydro-2H-chromeno[8,7-d]isoxazol-9-yl)-2-methoxybenzenesulfonamide], for which, in series [1] (iv, 1.0 mg/kg), the Vd amounted to 0.102 L/kg, the AUC(0-t) came out at 209 µg·h/mL, the half-life was 49 h and the Cmax turned out to be 22100 ng/mL. In addition, the bioavailability in series [1] was determined as 94.1%. For the same molecule, in series [1] (po, i.g., 2.0 mg/kg), the AUC(0-t) was determined as 393 µg·h/mL, the CL/F amounted to 0.0225 mL/min/kg, the half-life is 58.3 h and the Cmax stood at 33000 ng/mL. Moreover, the “Clearance rate CL/F” value in series [1] (1.0 mg/kg) amounted to 0.0251 mL/min/kg.

With `COc1cccc(OC(F)(F)F)c1S(=O)(=O)Nc1noc2cc(Cn3cccn3)c3c(c12)OCC3` [Compound 23, N-(4-((1H-pyrazol-1-yl)methyl)-2,3-dihydrobenzofuro[7,6-d]isoxazol-8-yl)-2-methoxy-6-(trifluoromethoxy)benzenesulfonamide], in series [2], the Vd/F was 0.47 L/kg, the AUC(0-t) amounted to 61.2 µg·h/mL, the CL/F was 0.431 mL/min/kg and the half-life is 13.7 h. Also, the Cmax in series [2] stood at 6240 ng/mL.
